Reference: the NIST ThermoML archive (doi:10.1021/acs.jced.7b00761)
± gives the expanded uncertainty stated by the source.

Assay: wn = mass fraction of the nth substance listed
Conditions: 313 K, 101.3 kPa, Liquid, w1 = 0.3

SMILES: CCNCCO [2-(ethylamino)ethanol] + CCN(CC)CCO
- viscosity (Vibrating wire viscometry): 3.83 ± 0.21 mPa·s
- mass density (petroleum hydrometers): 879 ± 3 kg/m3
